This note sets out measurements from patent publication US7098204B2 (C.N.R.S., priority 1999, dated 2006).

≈ marks a conversion by molar mass, not a printed value.

One experiment addresses cdk2/cyclin A (Homo sapiens, UniProt P24941). Briefly: cdk2/cyclin A kinase assay. Type of experiment: biochemical. To be noted: 15 μM ATP. As to the method:
(§1) Kinases activities were assayed in Buffer A or C (unless otherwise stated), at 30° C., at a final ATP concentration of 15 μM. Blank values were subtracted and activities calculated as pmoles of phosphate incorporated for a 10 min. incubation (usually expressed in % of the maximal activity, i.e. without inhibitors). Controls were performed with appropriate dilutions of Me2SO. In some cases phosphorylation of the substrate was assessed by autoradiography after SDS-PAGE. IC50 values were estimated from the dose-response curves. • CDK1/cyclin B was extracted in homogenisation buffer from M phase starfish (Marthasterias glacialis) oocytes and purified by affinity chromatography on p9^CKShs1-Sepharose beads, from which it was eluted by free p9^CKShs1 as described. The kinase activity was assayed in buffer C, with 1 mg histone H1/ml, in the presence of 15 μM [γ-^32P] ATP (3,000 Ci/mmol; 1 mCi/ml) in a final volume of 30 μl. After 10 min. incubation at 30° C., 25 μl aliquots of supernatant were spotted onto 2.5×3 cm pieces of Whatman P81 phosphocellulose paper, and, 20 sec. later, the filters were washed five times (for at least 5 min. each time) in a solution of 10 ml phosphoric acid/liter of water. The wet filters were counted in the presence of 1 ml ACS (Amersham) scintillation fluid. • GSK-3β was either purified from rabbit muscle or expressed in and purified from insect Sf9 cells. […]

The next experiment addresses c-Jun N-terminal kinase. Description: c-Jun N-terminal kinase assay. Type of experiment: biochemical. To be noted: 15 μM ATP. The method, then:
as §1

The target in a further experiment is Eg2 kinase (Xenopus laevis, UniProt Q91820). Description: Eg2 kinase assay. Type of experiment: biochemical. To be noted: 15 μM ATP. As to the method: Enzyme activities were assayed as described in the Experimental Procedures section, in the presence of increasing HD concentrations. IC50's were calculated from the dose-response curves.−, no effect at the highest dose tested (in parentheses).
Eg2 kinase, sequence (Q91820 whole entry): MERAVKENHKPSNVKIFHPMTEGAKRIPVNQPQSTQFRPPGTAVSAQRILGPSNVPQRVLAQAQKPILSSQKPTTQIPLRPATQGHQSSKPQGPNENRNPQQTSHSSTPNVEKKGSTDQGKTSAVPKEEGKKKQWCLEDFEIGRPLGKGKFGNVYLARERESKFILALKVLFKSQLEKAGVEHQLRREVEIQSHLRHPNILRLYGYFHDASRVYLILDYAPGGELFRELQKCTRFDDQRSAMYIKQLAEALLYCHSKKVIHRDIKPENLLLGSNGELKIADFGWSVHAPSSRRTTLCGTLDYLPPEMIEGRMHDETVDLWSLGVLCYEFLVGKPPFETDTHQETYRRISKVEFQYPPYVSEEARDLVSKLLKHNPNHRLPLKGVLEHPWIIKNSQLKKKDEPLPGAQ

Experiment [1] concerns the target T1, Insulin receptor tyrosine Kinase (Homo sapiens, UniProt P06213).
T1 construct: insulin receptor tyrosine kinase domain (CIRK-41)
Briefly: insulin receptor tyrosine kinase assay. Type of experiment: biochemical. To be noted: 15 μM ATP. The method, then: as §1

In experiment [2] the test system is GSK-3β like activity in Sf9 cells. Description: Tau (htau23) phosphorylation in Sf9 cells, Western blotting. Type of experiment: cell-based. To be noted: 50 μM, 5 hrs, Sf9 cells expressing htau23.
Protocol: Cells and viruses. Sf9 cells (InVitrogen, San Diego, Calif.) were grown at 27° C. in monolayer culture Grace's medium (Gibco BRL, Gaithersburg, Md.) supplemented with 10% fetal bovine serum and 50 μg gentamycin/ml and 2.5 μg amphotericin/ml. BaculoGold was obtained from PharMingen (San Diego, Calif.), pVL1392 from In Vitrogen.
Tau transfection. The gene for htau23, the shortest human tau isoform [27] was excised from the bacterial expression vector pNG2 [28] with XbaI and BamHI, and inserted into the baculovirus transfer vector pVL1392 cut with the same restriction endonucleases. The BaculoGold system was used to construct the tau baculovirus containing vector. The BaculoGold DNA is a modified type of baculovirus containing a lethal deletion. Cotransfection of the BaculoGold DNA with a complementing baculovirus transfer vector rescued the lethal deletion of this virus DNA and reconstituted viable virus particles carrying the htau23 coding sequence. Plasmid DNA used for transfections was purified using QIAGEN cartridges (Hilden, Germany). Sf9 cells grown in monolayers (2×10^6 cells in a 60 mm cell culture dish) were cotransfected with baculovirus DNA (0.5 μg BaculoGold DNA) and with vector derivatives of pVL1392 (2 μg) using a calcium phosphate coprecipitation method. […]
The test system of experiment [3] is 60 human tumor cell lines. Briefly: NCI disease-oriented in vitro screen. Type of experiment: cell-based. Particulars: 48 hr exposure, 0.01–100 μM, read-out: average IC50 over 60 human tumor cell lines. The text has this: A sulforhodaminine B protein assay was used to estimate the cytotoxicity.
In a further experiment the test system is P388 cell line. Briefly: Inhibition of cell proliferation, P388. Type of experiment: cell-based. To be noted: Mus musculus, P388; read-out: IC50 on P388 cell line in μM (parentheses).
The test system of a further experiment is brain, SF-295. Description: Human cancer cell line SF-295 proliferation. Type of experiment: cell-based.
The test system of another experiment is melanoma, SK-MEL-5. Briefly: Human cancer cell line SK-MEL-5 proliferation. Type of experiment: cell-based.
Another experiment has as its target CDK1/cyclin B. Briefly: CDK1/cyclin B kinetic experiments varying ATP and HD. Type of experiment: biochemical, starfish (Marthasterias glacialis). As to the method:
Blank values were subtracted and activities calculated as pmoles of phosphate incorporated for a 10 min. incubation (usually expressed in % of the maximal activity, i.e. without inhibitors). Controls were performed with appropriate dilutions of Me2SO. In some cases phosphorylation of the substrate was assessed by autoradiography after SDS-PAGE. IC50 values were estimated from the dose-response curves. • CDK1/cyclin B was extracted in homogenisation buffer from M phase starfish (Marthasterias glacialis) oocytes and purified by affinity chromatography on p9^CKShs1-Sepharose beads, from which it was eluted by free p9^CKShs1 as described. […] ATP (3,000 Ci/mmol; 1 mCi/ml) in a final volume of 30 μl. After 10 min. incubation at 30° C., 25 μl aliquots of supernatant were spotted onto 2.5×3 cm pieces of Whatman P81 phosphocellulose paper, and, 20 sec. later, the filters were washed five times (for at least 5 min. each time) in a solution of 10 ml phosphoric acid/liter of water. The wet filters were counted in the presence of 1 ml ACS (Amersham) scintillation fluid. • GSK-3β was either purified from rabbit muscle or expressed in and purified from insect Sf9 cells. […] ATP (3,000 Ci/mmol; 1 mCi/ml) in a final volume of 30 μl. […]

T1 sequence (P06213 1023-1298 limits assumed): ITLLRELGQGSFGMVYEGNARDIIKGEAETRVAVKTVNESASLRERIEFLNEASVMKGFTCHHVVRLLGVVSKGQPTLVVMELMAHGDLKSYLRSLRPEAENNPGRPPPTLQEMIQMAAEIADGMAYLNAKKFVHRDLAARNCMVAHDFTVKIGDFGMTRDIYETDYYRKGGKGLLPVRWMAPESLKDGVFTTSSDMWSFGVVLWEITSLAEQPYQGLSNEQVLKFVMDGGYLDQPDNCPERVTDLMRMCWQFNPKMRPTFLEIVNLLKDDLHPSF

Regarding `NC1=NC(=O)C(=C2CCNC(=O)c3[nH]c(Br)cc32)N1` [hymenialdisine, 4-(2-amino-4-oxo-2-imidazolin-5-ylidene)-2-bromo-4,5,6,7-tetrahydropyrrolo (2,3-c) azepine-8-one], the IC50 (usually the concentration at which inhibition is half-maximal) on cdk2/cyclin A came out at 0.07 µM; on c-Jun N-terminal kinase it was 8.5 µM; against Eg2 kinase, 4 µM; in experiment [1] it was 75 µM; in [3] it was 15.1 µM; in the experiment on P388 cell line, 9.9 µM. Besides, the IC50 in the experiment on brain, SF-295 was determined as 38.9 µg/mL (≈ 120 µM); with melanoma, SK-MEL-5, 5.7 µg/mL (≈ 17.6 µM). For the same compound, the “AT100 signal (tau phosphorylated at T212 and S214)” value in [2] is on record as “disappearance of AT100 signal”. Moreover, the Ki on CDK1/cyclin B (ATP 0.05 to 0.25 mM, histone H1 0.7 mg/ml, read-out: apparent inhibition constant (Ki)) came to 0.05 µM. Moreover, in the experiment on CDK1/cyclin B (double-reciprocal plots), the mechanism of inhibition entry is given as “competitive inhibitor for ATP”.
